# In patent US9029414B2, “Triterpenoid compounds and methods of use thereof” (Biotechnology Research Corporation, priority 2008, dated 2015):
# Key:
# [1] = system: MOG-induced IL-17 in primary splenocytes; assay: IL-17 Quantikine ELISA in primary splenocytes of EAE mice; assay type: cell-based; conditions: exogenous compound 30 μM; for decrease of IL-17 in response to exogenous compound: splenocytes of compound-treated EAE mice (100 mg/kg); for reduction in the amount of IL-17: splenocytes of vehicle-treated EAE mice, MOG 25 μg/mL, 48 hrs
# Description: (§1) On day 21, EAE mice were sacrificed by cervical dislocation and spleens were removed aseptically. The removed spleens were then cut with sterilized scissors and strained through […] mesh (BD Bioscience) with a plunger of 5 mL syringe (BD Bioscience) in 9 mL of RPMI 1640 (Invitrogen) with 100 U/mL penicillin and 100 μg/mL streptomycin (Sigma). The cell mixture was then added to 9 mL of Lympholyte (Cedarlane Laboratories) for gradient separation of splenocytes from red bloods cells by centrifugation at 1500 g for 20 min. After the centrifugation, the lympholyte layer containing splenocytes were carefully removed and washed with 10 mL of RPMI 1640 at 800 g for 10 min for three times. The isolated splenocytes were seeded onto different plate format and cultured with RPMI 1640 medium (Invitrogen) supplement with 10% heat inactivated fetal bovine serum (Invitrogen) and 100 U/mL penicillin and 100 μg/mL streptomycin at 37° C. CO2 incubator.
# Splenocytes from EAE mice were cultured at the density of 1×10^6 cells in 12-well plates (Falcon) in the absence or presence of the MOG peptide (25 μg/mL) (Hooke Laboratories), DA001 and DA021 (30 μM) with RPMI 1640 medium (Invitrogen) supplement with 10% heat inactivated fetal bovine serum (Invitrogen) and 100 U/mL penicillin and 100 μg/mL streptomycin (Sigma) for 48 h. After 48 h, the supernatants were collected by pelleting the cells at 300 g for 10 min at 4° C. 50 μL of the each sample was added to the microtiter plate provided by the manufacturer of the Quantikine ELISA assay kit (R and D systems). Additional 50 μL of assay diluents buffer was added and incubated at room temperature for 2 h. […] Subsequently, 100 μL of stop solution was added to each well and the plate was read in 450 nm wavelength on a microplate reader (Dynex Revelation 2.2).
# (§2) Cells were cultured in RPMI 1640 medium supplement with 10% heat inactivated fetal bovine serum and penicillin/streptomycin, in the absence or presence of MOG (25 μg/mL, Ex) with or without DA001 or DA021 (30 μM, Ex). […] The amount of IL-17 was calculated based on the standard curve established during the assay. […]
# as §2, with “DA001” for “DA001 or DA021”
# as §2, with “without” for “without DA001 or”
# [2] = system: MOG-induced IL-6 in primary splenocytes; assay: IL-6 Quantikine ELISA in primary splenocytes of EAE mice; assay type: cell-based; conditions: exogenous compound 30 μM; for amount of IL-6 in response to exogenous compound: splenocytes of compound-treated EAE mice (100 mg/kg); for reduction in the amount of MOG-induced IL-6: splenocytes of vehicle-treated EAE mice, MOG 25 μg/mL, 48 hrs
# Description: as §1
# Splenocytes from EAE mice were cultured at the density of 1×10^6 cells in 12-well plates (Falcon) in the absence or presence of the MOG peptide (25 μg/mL) (Hooke Laboratories), DA001 and DA021 (30 μM) with RPMI 1640 medium (Invitrogen) supplement with 10% heat inactivated fetal bovine serum (Invitrogen) and 100 U/mL penicillin and 100 μg/mL streptomycin (Sigma) for 48 h. After 48 h, the supernatants were collected by pelleting the cells at 300 g for 10 min at 4° C. 50 μL of the each sample was added to the microtiter plate provided by the manufacturer of the Quantikine ELISA assay kit (R and D systems). Additional 50 μL of assay diluents buffer was added and incubated at room temperature for 2 h. After the incubation, the supernatants were discarded and the cells were washed with wash buffer. […] Subsequently, 100 μL of stop solution was added to each well and the plate was read in 450 nm wavelength on a microplate reader (Dynex Revelation 2.2).
# as §2, with “IL-6” for “IL-17”
# as §2, with “DA001” for “DA001 or DA021”, “IL-6” for “IL-17”
# as §2, with “without” for “without DA001 or”, “IL-6” for “IL-17”
SMILES,decrease of IL-17 in response to exogenous compound [1] [%],reduction in the amount of IL-17 [1] [%],amount of IL-6 in response to exogenous compound [2],reduction in the amount of MOG-induced IL-6 [2] [%]
"C=C(C)[C@@H]1CC[C@]2(C(=O)O)CC[C@]3(C)C(CC[C@@H]4[C@@]5(C)CC[C@H](O[C@@H]6OC[C@H](O)[C@H](O)[C@H]6O[C@@H]6O[C@@H](C)[C@H](O)[C@@H](O)[C@H]6O)[C@@](C)(CO)[C@@H]5CC[C@]43C)[C@@H]12 (stereo partly drawn) [DA001, 3-O-[α-L-rhamnopyranosyl-(1→2)-α-L-arabinopyranosyl]-3,23-dihydroxy-20(29)-lupen-28-oic acid]",51,65,markedly decreased,73
C=C(C)[C@@H]1CC[C@]2(/C=N/O)CC[C@]3(C)C(CCC4[C@@]5(C)CCC(=O)[C@@](C)(CO)[C@@H]5CC[C@]43C)C12 (some centres unmarked) [DA021],89,68,markedly decreased,79
